Columns and labels:
SARS-CoV-2 main protease [1] = type: biochemical; conditions: Docking validation set, class assigned from COVID Moonshot IC50
trypsin = system: trypsin; design: method as in COVID Moonshot; conditions: Docking_validation.csv; ref COVID Moonshot; read-out: trypsin_IC50; cited from earlier work
[2] = target: recombinant SARS-CoV-2 main protease Mpro (Severe acute respiratory syndrome coronavirus 2, UniProt P0DTC1); experiment: FRET-based Mpro proteolytic activity assay; type: biochemical; conditions: for IC50: Mpro FRET (1 μM DTT)
SARS-CoV-2 main protease [3] = conditions: cited from earlier work; for IC50: Docking_validation.csv, ref COVID Moonshot, read-out: f_avg_IC50; for f_avg_pIC50: Covid_Moonshot_activity_data.csv, ref COVID Moonshot (covid.postera.ai)
Mpro = conditions: ML dataset, Origin COVID_Moonshot; ref COVID Moonshot; cited from earlier work
[4] = system: SARS, SARS-CoV-2 and MERS Mpro; conditions: Origin COVID_Moonshot; ref COVID Moonshot; cited from earlier work
human Cathepsin L = human Cathepsin L (Homo sapiens, UniProt P07711); experiment: Fluorimetric human liver Cathepsin L (hCatL) activity assay; type: biochemical; conditions: reference inhibitor
[5] = system: host–cell proteases, such as cathepsin L; design: method as in PMID 34726479, PMID 35352927, PMID 33158912; conditions: cited from earlier work

human Cathepsin L, sequence (P07711 114-333 limits assumed): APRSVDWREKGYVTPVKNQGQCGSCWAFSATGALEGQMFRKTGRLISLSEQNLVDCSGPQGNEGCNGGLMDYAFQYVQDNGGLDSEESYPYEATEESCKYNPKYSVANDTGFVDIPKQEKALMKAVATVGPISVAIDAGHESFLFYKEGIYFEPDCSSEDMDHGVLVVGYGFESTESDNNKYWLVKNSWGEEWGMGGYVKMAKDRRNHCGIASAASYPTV

With Cc1ccncc1CC(=O)Nc1cccc2c1CNCC2 [ADA-UCB-6c2cb422-3, Cc1ccncc1CC(=O)Nc1cccc2c1CNCC2] the “label (active / inactive)” value (SARS-CoV-2 main protease [1]) was “inactive”.

With NCc1cn(CC(=O)N(CC(=O)N2CCNCC2)c2ccc(-c3ccccc3)cc2)nn1 [ALP-POS-c0c213c9-7, NCc1cn(CC(=O)N(CC(=O)N2CCNCC2)c2ccc(-c3ccccc3)cc2)nn1] the “label (active / inactive)” value (SARS-CoV-2 main protease [1]) was “inactive”.

For Cn1ccc(CN(C(=O)Cc2cccnc2)c2ccc(-c3ccccn3)cc2)n1 [ALP-POS-c0c213c9-14, Cn1ccc(CN(C(=O)Cc2cccnc2)c2ccc(-c3ccccn3)cc2)n1], the “label (active / inactive)” value (SARS-CoV-2 main protease [1]) was “inactive”.

With O=C(Cn1nnc2ccccc21)N(Cc1ccccn1)c1ccc(-n2cnnc2)cc1 [ALP-POS-c0c213c9-18, O=C(Cn1nnc2ccccc21)N(Cc1ccccn1)c1ccc(-n2cnnc2)cc1] the “label (active / inactive)” value (SARS-CoV-2 main protease [1]) was “inactive”.

In the case of O=C(Oc1cncc(Cl)c1)c1cccc2[nH]ccc12 [ALP-POS-c59291d4-5, O=C(Oc1cncc(Cl)c1)c1cccc2[nH]ccc12], the IC50 (trypsin) is listed as 99000 nM.

For Cc1ccn2c(-c3ccc4[nH]ncc4c3)c(-c3ccc(F)cc3)nc2c1 [ALV-UNI-7ff1a6f9-14, Cc1ccn2c(-c3ccc4[nH]ncc4c3)c(-c3ccc(F)cc3)nc2c1], the “label (active / inactive)” value (SARS-CoV-2 main protease [1]) was “inactive”.

In the case of CC(=O)N1CCN(CC(=O)Nc2cnccc2C)CC1 [BEN-DND-93268d01-8, CC(=O)N1CCN(CC(=O)Nc2cnccc2C)CC1], the “label (active / inactive)” value (SARS-CoV-2 main protease [1]) is reported as “inactive”.

For O=C(Nc1nncn1C1CC1)C1CCOc2c(F)cccc21 (stereo not shown) [BRU-THA-a358fbdd-7, O=C(Nc1nncn1C1CC1)C1CCOc2c(F)cccc21], the “label (active / inactive)” value (SARS-CoV-2 main protease [1]) was “inactive”.

For O=C(COc1ccccc1F)Nc1ncnc2[nH]cnc12 [COM-UCB-8c7d23dc-1, O=C(COc1ccccc1F)Nc1ncnc2[nH]cnc12], the “label (active / inactive)” value (SARS-CoV-2 main protease [1]) was “inactive”.

For Cc1[nH]c2ncnc(NC(=O)c3cc4ccccc4c(=O)o3)c2c1C [COM-UCB-8c7d23dc-12, Cc1[nH]c2ncnc(NC(=O)c3cc4ccccc4c(=O)o3)c2c1C], the “label (active / inactive)” value (SARS-CoV-2 main protease [1]) was “inactive”.

For O=C(Nc1c[nH]nc1-c1ccccn1)c1cccc2nccn12 [COM-UCB-8c7d23dc-15, O=C(Nc1c[nH]nc1-c1ccccn1)c1cccc2nccn12], the “label (active / inactive)” value (SARS-CoV-2 main protease [1]) was “inactive”.

Cc1cncc(CC(=O)N2CCC[C@H]2c2cccc(Cl)c2)c1 [Compound 7, (S)-1-(2-(3-chlorophenyl)pyrrolidin-1-yl)-2-(5-methylpyridin-3-yl)ethan-1-one] gave an IC50 [2] of 5600 nM.

For Cc1cncc(CC(=O)N2CCc3cc(Cl)c(Cl)cc3C2)c1 [Compound 12, 1-(6,7-dichloro-3,4-dihydroisoquinolin-2(1H)-yl)-2-(5-methylpyridin-3-yl)ethan-1-one], the IC50 [2] was 2300 nM and the “fold improvement of Mpro FRET IC50 after first round of optimization” value ([2]; relative to the parent hit (compound 8 or 10)) was 27 fold.

For CCn1cncc1NC(=O)C1c2cc(Cl)cc(Cl)c2OCC1C (stereo not shown) [Compound 21, 6,8-dichloro-N-(1-ethyl-1H-imidazol-5-yl)-3-methylchromane-4-carboxamide], the IC50 [2] was 66900 nM.

In the case of Cc1ccncc1NC(=O)N(C)c1cccc(Cl)c1 [EDG-MED-0da5ad92-3, Cc1ccncc1NC(=O)N(C)c1cccc(Cl)c1], the “label (active / inactive)” value (SARS-CoV-2 main protease [1]) is reported as “inactive”.

For O=C(Nc1nncn1C1CC1)C1CCOc2ccccc21 (stereo not shown) [EDJ-MED-0e996074-1, O=C(Nc1nncn1C1CC1)C1CCOc2ccccc21], the “label (active / inactive)” value (SARS-CoV-2 main protease [1]) was “inactive”.

In the case of O=C(Cc1cccc(Cl)c1)Nc1cnnc2ccccc12 [EDJ-MED-50fe53e8-2, O=C(Cc1cccc(Cl)c1)Nc1cnnc2ccccc12], the “label (active / inactive)” value (SARS-CoV-2 main protease [1]) is reported as “inactive”.

With O=C(Nc1nncn1C1CC1)C1CCOc2ccc(Cl)cc21 (stereo not shown) [JAG-UCB-a3ef7265-20, O=C(Nc1nncn1C1CC1)C1CCOc2ccc(Cl)cc21] the “label (active / inactive)” value (SARS-CoV-2 main protease [1]) was “inactive”.

With Cc1ccc(-n2ncc3c(=O)n(CC(N)=O)cnc32)cc1C [JAG-UCB-ef2c0e8e-4, Cc1ccc(-n2ncc3c(=O)n(CC(N)=O)cnc32)cc1C] the “label (active / inactive)” value (SARS-CoV-2 main protease [1]) was “inactive”.

In the case of O=C(Cc1cccc(Cl)c1)Nn1cnc2ccccc2c1=O [JAN-GHE-5a013bed-3, O=C(Cc1cccc(Cl)c1)Nn1cnc2ccccc2c1=O], the IC50 (SARS-CoV-2 main protease [3]) is given as 8650 nM, the “label (active / inactive)” value (SARS-CoV-2 main protease [1]) is given as “inactive” and the IC50 (trypsin) is given as 99000 nM.

For CC(=O)NCCc1c[nH]c2ccc(O)cc12 [JOH-MSK-a63bdd1d-4, CC(=O)NCCc1c[nH]c2ccc(O)cc12], the “label (active / inactive)” value (SARS-CoV-2 main protease [1]) was “inactive”.

With O=C(Nc1cccnc1)N(CCN1CCOCC1)c1cccc(Cl)c1 [JOR-UNI-2fc98d0b-6, O=C(Nc1cccnc1)N(CCN1CCOCC1)c1cccc(Cl)c1] the “label (active / inactive)” value (SARS-CoV-2 main protease [1]) was “inactive”.

In the case of O=S(=O)(Cc1ccccc1F)c1oc(-c2ccc(F)cc2)nc1S(=O)(=O)c1ccccc1 [LON-WEI-4d77710c-2, O=S(=O)(Cc1ccccc1F)c1oc(-c2ccc(F)cc2)nc1S(=O)(=O)c1ccccc1], the IC50 (SARS-CoV-2 main protease [3]) is listed as 397 nM, the IC50 (Mpro) is listed as 248 nM and the IC50 [4] is listed as 397 nM.

In the case of CCOC(=O)c1c(C)n(S(C)(=O)=O)c2ccc(N(C(=O)c3ccco3)S(C)(=O)=O)cc12 [LON-WEI-4d77710c-8, CCOC(=O)c1c(C)n(S(C)(=O)=O)c2ccc(N(C(=O)c3ccco3)S(C)(=O)=O)cc12], the IC50 (SARS-CoV-2 main protease [3]) is given as 282 nM, the IC50 (Mpro) is given as 214 nM and the IC50 [4] is given as 282 nM.

In the case of O=C(Nc1cccc(C(F)(F)F)c1)Nc1ccccc1Sc1ncc([N+](=O)[O-])s1 [LON-WEI-4d77710c-69, O=C(Nc1cccc(C(F)(F)F)c1)Nc1ccccc1Sc1ncc([N+](=O)[O-])s1], the IC50 (SARS-CoV-2 main protease [3]) is given as 6260 nM.

For N#Cc1cnn(C(=O)c2cccs2)c1C1CC1 [LON-WEI-4d77710c-70, N#Cc1cnn(C(=O)c2cccs2)c1C1CC1], the IC50 (SARS-CoV-2 main protease [3]) is listed as 3240 nM, the IC50 (Mpro) is listed as 1800 nM and the IC50 [4] is listed as 3240 nM.

For c1ccc(-c2cc(Sc3nnc(-c4cccs4)o3)n3ncnc3n2)cc1 [LON-WEI-4d77710c-76, c1ccc(-c2cc(Sc3nnc(-c4cccs4)o3)n3ncnc3n2)cc1], the IC50 (SARS-CoV-2 main protease [3]) is given as 221 nM, the IC50 (Mpro) is given as 187 nM and the IC50 [4] is given as 221 nM.

With O=C(Nc1ccccc1)[C@@H](c1ccccc1)N1Cc2ccccc2C1=O [LON-WEI-b2874fec-15, O=C(Nc1ccccc1)[C@@H](c1ccccc1)N1Cc2ccccc2C1=O] the “label (active / inactive)” value (SARS-CoV-2 main protease [1]) was “inactive”.

Work on CC(=O)N[C@@H](CC(C)C)C(=O)N[C@@H](CC(C)C)C(=O)N[C@H](C=O)CCCNC(=N)N [Leupeptin] yielded an IC50 (human Cathepsin L) of about 2 nM.

In the case of CC1C(O)CCCN1Cc1ccccc1 (stereo not shown) [MAK-UNK-6435e6c2-9, CC1C(O)CCCN1Cc1ccccc1], the “label (active / inactive)” value (SARS-CoV-2 main protease [1]) is reported as “inactive”.

For O=C(Nc1cncc2ccccc12)C1=CCCc2ccc(Cl)cc21 [MAT-POS-0c8fa4a7-1, O=C(Nc1cncc2ccccc12)C1=CCCc2ccc(Cl)cc21], the IC50 (SARS-CoV-2 main protease [3]) is listed as 233 nM, the IC50 (Mpro) is listed as 157 nM and the IC50 [4] is listed as 233 nM.

In the case of COc1ccc(Cl)cc1OCCNC(=O)c1cc(=O)[nH]c2cccc(OC)c12 [MAT-POS-3b536971-1, COc1ccc(Cl)cc1OCCNC(=O)c1cc(=O)[nH]c2cccc(OC)c12], the IC50 (SARS-CoV-2 main protease [3]) is listed as 874 nM and the IC50 [4] is listed as 874 nM.

In the case of O=C(c1cc(=O)[nH]c2ccc(F)cc12)N1CCN(S(=O)(=O)c2cccc(Cl)c2)CC1 [MAT-POS-590ac91e-69, O=C(c1cc(=O)[nH]c2ccc(F)cc12)N1CCN(S(=O)(=O)c2cccc(Cl)c2)CC1], the “label (active / inactive)” value (SARS-CoV-2 main protease [1]) is reported as “inactive”.

For O=C(NCC1(C(=O)Nc2cncc3ccccc23)CCOc2ccc(Cl)cc21)C1COCCN1CC(F)(F)F (stereo not shown) [MAT-POS-932d1078-1, O=C(NCC1(C(=O)Nc2cncc3ccccc23)CCOc2ccc(Cl)cc21)C1COCCN1CC(F)(F)F], the f_avg_pIC50 (SARS-CoV-2 main protease [3]) is given as 4.666.

In the case of COC[C@]1(C(=O)Nc2cncc3ccccc23)CCOc2cc(Cl)c(Cl)cc21 [MAT-POS-932d1078-4, COC[C@]1(C(=O)Nc2cncc3ccccc23)CCOc2cc(Cl)c(Cl)cc21], the f_avg_pIC50 (SARS-CoV-2 main protease [3]) is given as 5.492.

For COC[C@@]1(C(=O)Nc2cncc3ccccc23)CCOc2cc(Cl)c(Cl)cc21 [MAT-POS-932d1078-5, COC[C@@]1(C(=O)Nc2cncc3ccccc23)CCOc2cc(Cl)c(Cl)cc21], the f_avg_pIC50 (SARS-CoV-2 main protease [3]) is listed as 4.772.

For O=C1CC(Oc2cc(Cl)cc(CC(=O)Nn3cnc4ccccc43)c2)N1 (stereo not shown) [MAT-POS-c478e61b-1, O=C1CC(Oc2cc(Cl)cc(CC(=O)Nn3cnc4ccccc43)c2)N1], the IC50 (SARS-CoV-2 main protease [3]) is given as 82100 nM, the “label (active / inactive)” value (SARS-CoV-2 main protease [1]) is given as “inactive” and the IC50 (Mpro) is given as 90600 nM.

In the case of O=C(Nc1cncc2ccccc12)C1COc2ccc(Cl)cc21 (stereo not shown) [MAT-POS-f7918075-2, O=C(Nc1cncc2ccccc12)C1COc2ccc(Cl)cc21], the IC50 (SARS-CoV-2 main protease [3]) is given as 764 nM and the IC50 [4] is given as 2600 nM.

For Cc1ccncc1NC(=O)Cc1cncc(Cl)c1 [TRY-UNI-2eddb1ff-2, Cc1ccncc1NC(=O)Cc1cncc(Cl)c1], the IC50 (SARS-CoV-2 main protease [3]) is listed as 46400 nM, the “label (active / inactive)” value (SARS-CoV-2 main protease [1]) is listed as “inactive” and the IC50 (trypsin) is listed as 99000 nM.

With NS(=O)(=O)c1ccc(N2CCC([C@@H]3CCCO3)CC2)cc1 [WAR-XCH-b72a1bbc-18, NS(=O)(=O)c1ccc(N2CCC([C@@H]3CCCO3)CC2)cc1] the “label (active / inactive)” value (SARS-CoV-2 main protease [1]) was “inactive”.

In the case of Cn1cnc(Cn2c(=O)[nH]/c(=N\c3cc4cn(C)nc4cc3Cl)n(Cc3cc(F)c(F)cc3F)c2=O)n1 [ensitrelvir], the “inhibitory activity against host–cell proteases, such as cathepsin L” value [5] is given as “no inhibitory activity”.

In the case of Nirmatrelvir–ritonavir, the “inhibitory activity against host–cell proteases, such as cathepsin L” value [5] is listed as “no inhibitory activity”.
